Columns and labels:
[1] = tested on: T1, Anc357 (synthetic construct); assay: anaerobic UV-visible difference spectroscopy (MLCT); type: binding; details: Fe(II)
T1 construct: pET28a, E. coli; N-terminal His6 tag removed by TEV; 37,413 Da expected after cleavage; monomer

PaIPNS = target: T2, PaIPNS (Pseudomonas aeruginosa, UniProt Q9HWJ0); assay: as above; type: binding; details: Fe(II) 1 mM, dithionite 2 mM, 25 mM HEPES pH 7.5
T2 construct: gene PA4191; synthetic codon-optimised gene in pET28a, E. coli; N-terminal His6 tag removed by TEV; EDTA-treated apoprotein reconstituted with Fe(II)
T2 sequence (Q9HWJ0 1-334): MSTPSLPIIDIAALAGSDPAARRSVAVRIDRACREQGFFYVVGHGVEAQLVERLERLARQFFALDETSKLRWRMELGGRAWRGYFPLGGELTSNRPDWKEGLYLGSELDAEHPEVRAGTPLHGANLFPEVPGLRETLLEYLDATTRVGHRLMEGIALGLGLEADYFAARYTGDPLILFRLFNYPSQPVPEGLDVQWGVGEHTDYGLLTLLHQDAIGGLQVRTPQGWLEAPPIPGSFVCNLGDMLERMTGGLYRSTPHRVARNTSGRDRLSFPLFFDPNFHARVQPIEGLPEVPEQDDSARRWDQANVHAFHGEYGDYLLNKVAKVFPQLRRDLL

Din11 = target: T3, Din11 (Arabidopsis thaliana, UniProt Q8H113); assay: P5C formation, colorimetric assay; type: biochemical; details: 2OG 6.67 mM, L-Arg 6.67 mM, Fe(II) 0.4 mM, ascorbate 0.8 mM, HEPES pH 7.5, room temperature
T3 construct: gene 2ODDC23.2; synthetic codon-optimised gene in pET28a, E. coli; N-terminal His6 tag, removed by TEV; Fe(II) added
T3 sequence (Q8H113 1-357): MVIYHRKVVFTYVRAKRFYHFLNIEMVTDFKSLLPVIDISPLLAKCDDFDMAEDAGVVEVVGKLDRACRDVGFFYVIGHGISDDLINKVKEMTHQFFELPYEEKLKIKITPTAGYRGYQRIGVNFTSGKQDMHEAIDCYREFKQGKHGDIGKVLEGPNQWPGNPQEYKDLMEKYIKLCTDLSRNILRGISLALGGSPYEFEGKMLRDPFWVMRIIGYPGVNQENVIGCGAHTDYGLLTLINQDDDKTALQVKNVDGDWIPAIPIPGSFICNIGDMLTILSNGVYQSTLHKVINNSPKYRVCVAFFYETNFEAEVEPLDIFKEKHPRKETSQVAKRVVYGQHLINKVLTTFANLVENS

Row | SMILES | anaerobic UV-visible difference spectroscopy (MLCT) [1] | anaerobic UV-visible difference spectroscopy (MLCT) (PaIPNS) | P5C formation, colorimetric assay (Din11)
1 | O=C(O)CCC(=O)C(=O)O [2OG] | consistent with 2OG binding (Figure S6) | The PaIPNS spectra clearly demonstrated that PaIPNS binds 2OG | –
2 | N=C(N)NCCC[C@H](N)C(=O)O [L-Arg] | – | – | this enzyme hydroxylated L-Arg to produce P5C
